Results: US20080032940A1, “METHODS FOR REDUCING ANTHRACYCLINE-INDUCED TOXICITY” (priority 2006, published 2008)
Values belong to the molecule of their own block, whether it stands above or below them.

How the values were obtained:
[1] = test system: tumor cell lines (LnCAP, MCF-7, SH-SY5Y and MDA-MB-231); assay: MTT assay, toxicity in tumor cell lines; type: cell-based, human; conditions: 10 μM, MCF-7 and SH-SY5Y
From the text: In contrast, four tumor cell lines were used herein. The first tumor cell line was a human neuroblastoma cell line, SH-SY5Y, from American Type Culture Collection (ATCC; Rockville, Md.). The second tumor cell line was a human prostate cancer cell line, LnCAP, from ATCC. The third tumor cell line was a human breast cancer cell line, MCF-7, from ATCC. The fourth tumor cell line was a human metastatic breast cancer cell line, MDA-MB-231 from ATCC.
(§1) In a first set of experiments, a dose-response curve to MitoQ was measured in each of the six cell lines described above. Briefly, cells were treated with various concentrations of MitoQ for twenty-four hours. Following treatment, cellular toxicity was measured by a MTT assay as described below.
In a third set of experiments, each of the six cell lines described above were subjected to the following treatments: (1) 10 μM MitoQ; (2) 10 μM CoQ (MitoQ without the phosphonium, which served as a control); and (3) 10 μM triphenylphosphonium (TPP; MitoQ without the ubiquinone or the ubquinol moiety, which also served as a control). Following treatment, cellular toxicity was measured by the MTT assay. […]

male Sprague Dawley rats = assay: Echocardiography in DOX-treated rats (cardiac function test); type: in vivo, rat
Description: (§2) In a first set of experiments, male Sprague Dawley rats were divided into the following four treatment groups: (1) PBS control; (2) MitoQ (5 mg/kg, i.p., twice per week); (3) DOX (2.5 mg/kg, i.v.); and (4) DOX plus MitoQ (2.5 mg/kg DOX and 5 mg/kg MitoQ, both i.p.). All agents were administered in PBS for ten weeks. At weeks four, eight, ten and twelve, cardiac function tests were performed. Following the treatments, the rats were sacrificed and hearts were removed for histochemical and biochemical analysis. See FIG. 8 for treatment protocol
In a second set of experiments, a different mitochondria-target antioxidant was assessed, Mito-TEMPOL. Male Sprague Dawley rats were divided into the following four treatment groups: (1) PBS control; (2) Mito-TEMPOL (5 mg/kg, i.p., twice per week); (3) DOX (2.5 mg/kg, i.v.); and (4) DOX plus Mito-TEMPOL (2.5 mg/kg and 5 mg/kg Mito-TEMPOL, both i.p.). All agents were administered in PBS for ten weeks. At weeks four, eight, ten and twelve, cardiac function tests were performed. Following treatment, the rats were sacrificed and hearts were removed for histochemical and biochemical analysis.
Cardiac Function Test: Echocardiography was performed at baseline, four, eight, ten and twelve weeks following the start of treatment. Rats were anesthetized with a mixture of ketamine (75 mg/kg) and medotomidine (0.25 mg/kg). Once anesthetized, the chest was shaved and cardiac rhythm monitored using three limb leads attached to a Vivid 7 from General Electric (Waukesha, Wis.) and a M12L linear array probe.
2-D B mode imaging parameters were as follows: (1) depth, 2.5 cm.; (2) frame rate, 230 frames/second; and (3) second harmonic imaging. For the primary endpoint data, the standard short axis view at the mid-ventricular level were used. Because of the serial nature of comparative measurements, co-registration at this level was ensured by the use of papillary muscles as localizers and obtaining a circular left ventricular slice. Other standard views obtained induced short axis apical slices and short axis basal slices at the mitral valve. […] In addition, Q analysis software (General Electric) of the B mode echo images was used to measure regional radial and circumferential strain. Furthermore, diastolic function was monitored by using pulsed Doppler of the mitral inflow and aortic outflow regions in a standard apical four chamber/five chamber view, as was mitral E wave, A wave, isovolumic relaxation time and mitral E deceleration time.

[2] = test system: isolated cardiomyocytes and isolated hearts; conditions: cited from earlier work
laboratory animals = conditions: in vivo; cited from earlier work
H9c2 cells = assay: MTT assay, toxicity in normal cells H9c2; type: cell-based, rat; conditions: 10 μM
Description: (§3) Cell lines: Two normal cell lines were used herein. The first normal cell line was a rat-derived embryonic cardiomyocyte cell line, H9c2, from […] (Manassas, Va.; Catalog No. CRL-1446). The second normal cell line was BAECs from Clonetics Corp. (San Diego, Calif.).
as §1
(§4) In a third set of experiments, each of the six cell lines described above were subjected to the following treatments: (1) 10 μM MitoQ; (2) 10 μM CoQ (MitoQ without the phosphonium, which served as a control); and (3) 10 μM triphenylphosphonium (TPP; MitoQ without the ubiquinone or the ubquinol moiety, which also served as a control). Following treatment, cellular toxicity was measured by the MTT assay.
(§5) MTT Assay: An MIT assay was performed to examine MitoQ's toxicity on normal cells and tumor cells (see Mosmann T, “Rapid colorimetric assay for cellular growth and survival: Application to proliferation and cytotoxicity assays,” J. Immunol. Meth. 65:55-63 (1983)). […] Formazon crystals formed cells were solubilized by adding 200 μl of 0.1N HCl in isopropanol, and absorbance was measured at 570 nm.

[3] = test system: bovine aortic endothelial cells (BAEC); assay: MTT assay, toxicity in normal cells BAEC; type: cell-based; conditions: 10 μM; BAECs
Description: as §3, §1, §4, §5

caspase-3 = assay: Caspase-3 activity in heart tissues of DOX-treated rats; type: in vivo, rat; conditions: DOX treatment
Description: Caspase-3 Activity: Caspase-3 activity was measured with acetyl Asp-Glu-Val-Asp 7-amido-4-methlylcoumarin (Ac-DEVD-AFC), as described in a kit from Sigma Aldrich (St. Louis, Mo.). Caspase-3 hydrolyzes Ac-DEVD-AFC to release a fluorescent moiety, 7-amino-4-methylcoumarin (AMC). Briefly, treated cells were suspended in 100 μl of lysis buffer and passed through a 24-gauge needle 10 times to ensure complete lysis. The resulting lysate was centrifuged at 4° C. at 10,000 rmp. 50 μl of clear supernatant was used for the activity assay. […] The excitation and emission wavelengths of AMC are 360 nm and 460 nm respectively.
as §2
Caspase-3 was determined as described above in Example 3.

Molecule: coenzyme Q [CoQ]
toxicity (MTT), FIG. 4 [1]: not toxic
DOX-induced cardiomyopathy (echocardiograms, FIG. 9A) (male Sprague Dawley rats; after 12 weeks of DOX treatment): not
protection of left ventricular function and fractional shortening against DOX cardiotoxicity (male Sprague Dawley rats; co-administered with DOX, echocardiography): did not significantly protect
effect on DOX-induced toxicity [2]: reversed DOX-induced toxicity
efficacy against DOX cardiotoxicity in animals (laboratory animals): not as effective

Molecule: triphenylphosphonium [TPP, reference compound]
toxicity (MTT), FIG. 4 [1]: not toxic
toxicity (MTT), FIG. 4 (H9c2 cells): not toxic
toxicity (MTT), FIG. 4 [3]: not toxic

Molecule: CC(=O)N[C@@H](CS)C(=O)O [N-acetylcysteine]
efficacy against DOX cardiotoxicity in animals (laboratory animals): limited efficacy

decrease of fractional shortening versus control (male Sprague Dawley rats; DOX 2.5 mg/kg, rats): 18%
decrease of radial strain versus control (male Sprague Dawley rats; DOX 2.5 mg/kg, rats): 35%
caspase activity in heart tissues (caspase-3): increased with increasing DOX treatment
Molecule: COc1cccc2c1C(=O)c1c(O)c3c(c(O)c1C2=O)C[C@@](O)(C(=O)CO)C[C@@H]3O[C@H]1C[C@H](N)[C@H](O)[C@H](C)O1 [DOX, doxorubicin]

Molecule: Cc1c(C)c2c(c(C)c1O)CC[C@@](C)(CCC[C@H](C)CCC[C@H](C)CCCC(C)C)O2 [α-tocopherol]
efficacy against DOX cardiotoxicity in animals (laboratory animals): limited efficacy
